Columns and labels:
Format in all cases: ADME, organism-based, Canis lupus familiaris
[1] = Volume of distribution at steady state in beagle dog at 1 mg/kg, iv and 3 mg/kg, po by LC-MS/MS analysis; details: in vivo, read-out: Vdss
[2] = Tmax in beagle dog at 1 mg/kg, iv and 3 mg/kg, po by LC-MS/MS analysis; details: in vivo
[3] = Oral bioavailability in beagle dog at 3 mg/kg by LC-MS/MS analysis; details: in vivo
[4] = Half life in beagle dog at 1 mg/kg, iv and 3 mg/kg, po by LC-MS/MS analysis; details: in vivo
[5] = Cmax in beagle dog at 1 mg/kg, iv and 3 mg/kg, po by LC-MS/MS analysis; details: in vivo

Vd [1]: 4.6 L/kg
Tmax [2]: 0.25 h
bioavailability [3]: 17%
half-life [4]: 4.7 h
Cmax [5]: 510 nM
Structure (SMILES): COc1cccc(-n2nnc(C3CC3)c2C(=O)N(C)c2ccc(C#N)cc2)c1
